# Measurements as given in paper PMC8228819, “Comparison of a Short Linear Antimicrobial Peptide with Its Disulfide-Cyclized and Cyclotide-Grafted Variants against Clinically Relevant Pathogens” (Microorganisms, 2021).
# Read-outs that look alike come from different tables or passages of the source. Bridge positions count the residues as written; N and C are the ends. Peptide text beside a SMILES is read from it.
# Experiments:
# [1] = tested on: Acinetobacter baumannii, clinical isolate from SGUL; type: cell-based
# Description: (§1) The following strains were used in this study: Escherichia coli, ATCC 25922, Staphylococcus aureus, epidemic methicillin-resistant EMRSA-15, Klebsiella pneumoniae, clinical isolate from St George’s, University of London (SGUL, London, UK), Acinetobacter baumannii, clinical isolate from SGUL, Pseudomonas aeruginosa, PA01 wildtype strain, and Enterococcus faecalis, vancomycin-resistant ATCC 51299.
# (§2) The minimal inhibitory concentration (MIC) was determined in a microdilution assay using Mueller–Hinton (MH) or Brain Heart Infusion Broth (BHI) broth following a previously published protocol. Briefly, a twofold serial dilution of the antibiotics and peptides were prepared and added to a bacteria solution, resulting in 2–5 10^5 CFU/mL. The microtiter plates (polypropylene, Corning, Corning, NY, USA) were incubated for 18 h at 37 °C and MICs were taken visually. Based on our experience with proline rich peptides, their low activity in Mueller–Hinton broth, and their strong activity in diluted broth, we decided to also measure the activity of the peptide set in a 1/5 dilution of the broth. MICs in the presence of serum were established using human serum (Zen-Bio, Durham, NC, USA) and heat-inactivated serum (Sigma-Aldrich, St. Louis, MO, USA). A total of 20% (v/v) of each human serum was mixed with bacterial solution and added to predetermined concentrations of antibiotics and peptides, resulting in a final 10% (v/v) concentration of serum and 2–5 × 10^5 bacteria.
# [2] = tested on: Enterococcus faecalis, vancomycin-resistant ATCC 51299; type: cell-based
# Description: as §1, §2
# [3] = tested on: Escherichia coli, ATCC 25922; type: cell-based
# Description: as §1, §2
# [4] = tested on: Klebsiella pneumoniae, clinical isolate from St George's, University of London; type: cell-based
# Description: as §1, §2
# [5] = tested on: Pseudomonas aeruginosa, PA01 wildtype strain; type: cell-based
# Description: as §1, §2
# [6] = tested on: Staphylococcus aureus, epidemic methicillin-resistant EMRSA-15; type: cell-based; conditions: for MIC: single measurement (asterisk)
# Description: as §1, §2
# [7] = tested on: ESKAPE pathogens (E. faecalis, S. aureus, K. pneumoniae, A. baumannii, P. aeruginosa, E. coli); assay: MIC summary over the ESKAPE panel; type: cell-based
# Description: as §1, §2
# Serum stability assay = type: in vitro ADME, human; conditions: 100% human serum
# Description: (§3) Serum stability assays were performed in 100% human serum (Sigma-Aldrich, St. Louis MO, USA, human male AB plasma). Serum was centrifuged to remove lipids and incubated with the peptides at 100 μM for 0, 0.5, 1, 3, 6, and 24 h at 37 °C. Serum proteins were precipitated by adding 3 μL of TFA to 40 μL of peptide – serum sample (final TFA 7%). The remaining supernatant was diluted with 50:50 solvent A/B. The amount of peptide remaining (%) was quantified by UPLC-MS analysis. For pH stability experiments, peptides were incubated at a concentration of 20 μM at pH 1.2 and 7.5 for 24 h, and stability was monitored by UPLC analysis.
# pH stability = type: physicochemical; conditions: 20 μM, pH 1.2 and 7.5, 24 h, UPLC
# Description: as §3
# E. coli (ATCC 25922) = assay: Time kill assay; type: cell-based, Escherichia coli; conditions: 1/5 (20%) MH broth, 3 times the MIC, 1 × 10^6 CFU/mL, 37 °C, 10-1440 min, three experiments
# Description: Overnight culture of E. coli (ATCC 25922) was diluted for approximately two hours to achieve logarithmic phase. The logarithmic phase inoculum was then adjusted to 1 × 10^6 CFU/mL in 20% MH broth. Within a 1.5 mL microfuge tube (STARLAB (UK) Limited, Milton Keynes, UK), the peptides were added to the inoculum at a concentration that was threefold the MIC against E coli. The tubes were placed in a shaking incubator (225 rpm) at 37 °C. At predetermined time points between 0 and 24 h: 10, 20, 40, 60, 120, 240, and 1440 min for the peptides, and for the untreated control: 0, 60, 120, 240, and 1080 min, 100 µl samples were taken out. Furthermore, a 1 in 10 dilution series using sterile 10 mM Tris buffer (pH 7.5) was performed using the removed sample, then 5 × 5 µL were spotted for each dilution onto MH agar plates and incubated at 37 °C. The next day, the colonies were counted and the colony forming units, CFU/mL for each time point, were determined.
# [8] = ratio of MICs (fold loss of activity in serum)
structure (smiles),measurement,setting,value
"CC[C@H](C)[C@@H]1NC(=O)[C@@H]2CSSC[C@@H]3NC(=O)[C@H](Cc4c[nH]c5ccccc45)NC(=O)[C@H]([C@@H](C)CC)NC(=O)[C@H]([C@@H](C)CC)NC(=O)[C@H](Cc4c[nH]c5ccccc45)NC(=O)[C@H](CCCNC(=N)N)NC(=O)[C@H](C(C)C)NC(=O)[C@H](CCCNC(=N)N)NC(=O)[C@H](CCCNC(=N)N)NC(=O)[C@H](CCCCN)NC(=O)[C@@H]4CSSC[C@H](NC(=O)[C@H](CC(=O)O)NC(=O)[C@H](CO)NC(=O)[C@H](CC(=O)O)NC(=O)[C@H](CCCNC(=N)N)NC(=O)[C@H](CCCNC(=N)N)NC(=O)[C@H](CSSC[C@H](NC1=O)C(=O)N[C@@H](CCCNC(=N)N)C(=O)NCC(=O)N[C@@H](CC(N)=O)C(=O)NCC(=O)N[C@@H](Cc1ccc(O)cc1)C(=O)N4)NC(=O)[C@H](CCCCN)NC(=O)[C@H](CCCCN)NC(=O)[C@H](CC(C)C)NC(=O)[C@H]([C@@H](C)CC)NC(=O)[C@H](CCCCN)NC(=O)[C@@H]1CCCN1C3=O)C(=O)N1CCC[C@H]1C(=O)NCC(=O)N[C@@H](C)C(=O)N2 [[L6-optP7]Mco] (cyclo(ACICRGNGYCKRRVRWIIWCPKILKKCRRDSDCPG); disulfide 2-20, 4-27, 10-33)",Ratio of MIC of cyclized peptide version over MIC of the linear peptide optP7,[1]; 1/5 MH,5
same,Ratio of MIC of cyclized peptide version over MIC of the linear peptide optP7,[1]; 1/5 MH + 10% human serum,10.3
same,Improvement of activity when diluting the broth,[1]; 1/5 MH versus MH,15.5 fold
same,Ratio of MIC of cyclized peptide version over MIC of the linear peptide optP7,[1]; MH,41.3
same,Ratio 1/5 MH + 10% serum/ 1/5MH,[1]; ratio of MICs,7.75
same,Ratio of MIC of cyclized peptide version over MIC of the linear peptide optP7,[2]; 1/5 BHI,18.8
same,Ratio of MIC of cyclized peptide version over MIC of the linear peptide optP7,[2]; 1/5 BHI + 10% human serum,2.6
same,Ratio 1/5 BHI + 10% serum/ 1/5BHI,[2]; ratio of MICs,4.1
same,Ratio of MIC of cyclized peptide version over MIC of the linear peptide optP7,[3]; 1/5 MH + 10% human serum,18.8
same,Improvement of activity when diluting the broth,[3]; 1/5 MH versus MH,31 fold
same,Ratio of MIC of cyclized peptide version over MIC of the linear peptide optP7,"[3]; 1/5 MH, average used for an MIC range",3.3
same,Ratio of MIC of cyclized peptide version over MIC of the linear peptide optP7,[3]; MH,77.5
same,Ratio 1/5 MH + 10% serum/ 1/5MH,[3]; [8],7.5
same,Ratio of MIC of cyclized peptide version over MIC of the linear peptide optP7,[4]; 1/5 MH,20.7
same,Improvement of activity when diluting the broth,[4]; 1/5 MH versus MH,2 fold
same,Ratio of MIC of cyclized peptide version over MIC of the linear peptide optP7,[4]; MH,41.3
same,Ratio of MIC of cyclized peptide version over MIC of the linear peptide optP7,[5]; 1/5 MH,10.0
same,Ratio of MIC of cyclized peptide version over MIC of the linear peptide optP7,[5]; 1/5 MH + 10% human serum,1.3
same,Improvement of activity when diluting the broth,"[5]; 1/5 MH versus MH, Table 2 data",7.8 fold
same,Improvement of activity in diluted media,"[5]; 1/5 MH versus MH, fractions of Table 1",7.8 fold
same,Ratio of MIC of cyclized peptide version over MIC of the linear peptide optP7,[5]; MH,20.6
same,Ratio 1/5 MH + 10% serum/ 1/5MH,[5]; [8],1
same,Ratio 1/5 MH + 10% serum/ 1/5MH,[6]; ratio of MICs,>7.8
same,"Average activity decrease, lower than for c-opt7",[7],1.6 fold
same,Average activity decrease factor compared to linear optP7,[7]; all conditions of Table 3,15.5 fold
same,Antimicrobial activity in broth (in words),[7]; undiluted broth,medium to weak
same,Increase in stability against degradation in 100% human serum compared to the linear variant,Serum stability assay,33 fold
same,"remaining at 24 h, 100 μM","Serum stability assay; male, 100% human serum (human male AB plasma), 100 μM, 37 °C, 24 h, UPLC-MS, read-out: Peptide still present after 24 h in human serum",~30%
same,pH stability,pH stability,minor signs of degradation after 24 h at low pH
same,Kinetics of killing,E. coli (ATCC 25922),drastically slower acting
"CC[C@H](C)[C@H](NC(=O)CN)C(=O)NCC(=O)N[C@@H](C)C(=O)N[C@H](C(=O)N[C@@H](CC(C)C)C(=O)N[C@@H](CCCCN)C(=O)N[C@H](C(=O)N[C@@H](CC(C)C)C(=O)N[C@H](C(=O)N[C@H](C(=O)NCC(=O)N[C@@H](CC(C)C)C(=O)N1CCC[C@H]1C(=O)N[C@@H](C)C(=O)N[C@@H](CC(C)C)C(=O)N[C@H](C(=O)N[C@@H](CO)C(=O)N[C@@H](Cc1c[nH]c2ccccc12)C(=O)N[C@H](C(=O)N[C@@H](CCCCN)C(=O)N[C@@H](CCCNC(=N)N)C(=O)N[C@@H](CCCCN)C(=O)N[C@@H](CCCNC(=N)N)C(=O)N[C@@H](CCC(N)=O)C(=O)N[C@@H](CCC(N)=O)C(N)=O)[C@@H](C)CC)[C@@H](C)CC)[C@@H](C)O)[C@@H](C)O)C(C)C)C(C)C [Melittin, reference compound]",MIC,[6]; 1/5 MH + 10% heat inactivated human serum,1.4 µM
same,MIC,[6]; 1/5 MH + 10% human serum,1.4 µM
same,MIC,[6]; 1/5 MH,0.7 µM
same,MIC,[6]; MH,4 µM
